Values quoted from earlier work as cited in PubChem BioAssay AID1259409 (Chemical Carcinogenesis Research Information System (CCRIS), 2018).

Tested on: rodent chemically induced tumor inhibition, incidence and multiplicity
Test: CCRIS tumor inhibitor studies

## C#C[C@]1(O)CC[C@H]2[C@@H]3CCc4cc(O)ccc4[C@H]3CC[C@@]21C
Carcinogen: N-METHYL-N-NITROSOUREA, 684-93-5, Dose [Inhibitor]: 0, 0.001% IN DIET BEGINNING POST CARCINOGEN TREATMENT AND CONTINUING FOR 23 WK (STUDY DURATION: 25 WK), Route [Inhibitor]: ORAL, Species: RAT, Strain/Sex: F344/MALE, Target Tissue: Type of Lesion: FORESTOMACH: PAPILLOMA, Dose [Carcinogen]: 50 MG/KG 4/2 WK, Promoter: NONE USED
  tumour outcome (control, treated, inhibition, significance): 8/17 (47%), 4/20 (20%), 57%, not calculated
Carcinogen: N-METHYL-N-NITROSOUREA, 684-93-5, Dose [Inhibitor]: 0, 0.001% IN DIET BEGINNING POST CARCINOGEN TREATMENT AND CONTINUING FOR 23 WK (STUDY DURATION: 25 WK), Route [Inhibitor]: ORAL, Species: RAT, Strain/Sex: F344/MALE, Target Tissue: Type of Lesion: FORESTOMACH: SQUAMOUS CELL CARCINOMA, Dose [Carcinogen]: 50 MG/KG 4/2 WK, Promoter: NONE USED
  tumour outcome (control, treated, inhibition, significance): 2/17 (12%), 2/20 (10%), 17%, not calculated
Carcinogen: N-METHYL-N-NITROSOUREA, 684-93-5, Dose [Inhibitor]: 0, 0.001% IN DIET BEGINNING POST CARCINOGEN TREATMENT AND CONTINUING FOR 23 WK (STUDY DURATION: 25 WK), Route [Inhibitor]: ORAL, Species: RAT, Strain/Sex: F344/MALE, Target Tissue: Type of Lesion: HEMATOPOIETIC SYSTEM: LYMPHOMA OR LEUKEMIA, Dose [Carcinogen]: 50 MG/KG 4/2 WK, Promoter: NONE USED
  tumour outcome (control, treated, inhibition, significance): 3/17 (18%), 0/20 (0%), 100%, not calculated
Carcinogen: N-METHYL-N-NITROSOUREA, 684-93-5, Dose [Inhibitor]: 0, 0.001% IN DIET BEGINNING POST CARCINOGEN TREATMENT AND CONTINUING FOR 23 WK (STUDY DURATION: 25 WK), Route [Inhibitor]: ORAL, Species: RAT, Strain/Sex: F344/MALE, Target Tissue: Type of Lesion: SMALL INTESTINE: ADENOCARCINOMA, Dose [Carcinogen]: 50 MG/KG 4/2 WK, Promoter: NONE USED
  tumour outcome (control, treated, inhibition, significance): 9/17 (53%), 0/20 (0%), 100%, not calculated
Carcinogen: N-METHYL-N-NITROSOUREA, 684-93-5, Dose [Inhibitor]: 0, 0.001% IN DIET BEGINNING POST CARCINOGEN TREATMENT AND CONTINUING FOR 23 WK (STUDY DURATION: 25 WK), Route [Inhibitor]: ORAL, Species: RAT, Strain/Sex: F344/MALE, Target Tissue: Type of Lesion: SMALL INTESTINE: ADENOMA, Dose [Carcinogen]: 50 MG/KG 4/2 WK, Promoter: NONE USED
  tumour outcome (control, treated, inhibition, significance): 10/17 (59%), 7/20 (35%), 41%, not calculated
Carcinogen: N-METHYL-N-NITROSOUREA, 684-93-5, Dose [Inhibitor]: 0, 0.001% IN DIET BEGINNING POST CARCINOGEN TREATMENT AND CONTINUING FOR 23 WK (STUDY DURATION: 25 WK), Route [Inhibitor]: ORAL, Species: RAT, Strain/Sex: F344/MALE, Target Tissue: Type of Lesion: THYROID: ADENOCARCINOMA, Dose [Carcinogen]: 50 MG/KG 4/2 WK, Promoter: NONE USED
  tumour outcome (control, treated, inhibition, significance): 1/17 (6%), 0/20 (0%), 100%, not calculated
Carcinogen: N-METHYL-N-NITROSOUREA, 684-93-5, Dose [Inhibitor]: 0, 0.001% IN DIET BEGINNING POST CARCINOGEN TREATMENT AND CONTINUING FOR 23 WK (STUDY DURATION: 25 WK), Route [Inhibitor]: ORAL, Species: RAT, Strain/Sex: F344/MALE, Target Tissue: Type of Lesion: THYROID: ADENOMA, Dose [Carcinogen]: 50 MG/KG 4/2 WK, Promoter: NONE USED
  tumour outcome (control, treated, inhibition, significance): 3/17 (18%), 0/20 (0%), 100%, not calculated
Carcinogen: N-METHYL-N-NITROSOUREA, 684-93-5, Dose [Inhibitor]: 0, 0.001% IN DIET BEGINNING POST CARCINOGEN TREATMENT AND CONTINUING FOR 23 WK (STUDY DURATION: 25 WK), Route [Inhibitor]: ORAL, Species: RAT, Strain/Sex: F344/MALE, Target Tissue: Type of Lesion: TONGUE: PAPILLOMA, Dose [Carcinogen]: 50 MG/KG 4/2 WK, Promoter: NONE USED
  tumour outcome (control, treated, inhibition, significance): 2/17 (12%), 2/20 (10%), 16%, not calculated
Carcinogen: N-METHYL-N-NITROSOUREA, 684-93-5, Dose [Inhibitor]: 0, 0.001% IN DIET BEGINNING POST CARCINOGEN TREATMENT AND CONTINUING FOR 23 WK (STUDY DURATION: 25 WK), Route [Inhibitor]: ORAL, Species: RAT, Strain/Sex: F344/MALE, Target Tissue: Type of Lesion: TONGUE: SQUAMOUS CELL CARCINOMA, Dose [Carcinogen]: 50 MG/KG 4/2 WK, Promoter: NONE USED
  tumour outcome (control, treated, inhibition, significance): 2/17 (12%), 0/20 (0%), 100%, not calculated
Carcinogen: N-METHYL-N-NITROSOUREA, 684-93-5, Dose [Inhibitor]: 0, 0.001% IN DIET BEGINNING POST CARCINOGEN TREATMENT AND CONTINUING FOR 23 WK (STUDY DURATION: 25 WK), Route [Inhibitor]: ORAL, Species: RAT, Strain/Sex: F344/MALE, Target Tissue: Type of Lesion: URINARY BLADDER: PAPILLOMA, Dose [Carcinogen]: 50 MG/KG 4/2 WK, Promoter: NONE USED
  tumour outcome (control, treated, inhibition, significance): 2/17 (18%), 0/20 (0%), 100%, not calculated

## Cc1ncc(CO)c(CO)c1O
Carcinogen: 7,12-DIMETHYLBENZ[A]ANTHRACENE, 57-97-6, Dose [Inhibitor]: 0.04% IN DRINKING WATER DAILY STARTING 4 WK BEFORE CARCINOGEN TREATMENT AND CONTINUING FOR DURATION OF STUDY (STUDY DURA, Route [Inhibitor]: ORAL, Species: MOUSE, Strain/Sex: 101/MALE, FEMALE, Target Tissue: Type of Lesion: SKIN: PAPILLOMA, Dose [Carcinogen]: 225 UG IN 0.15 ML ACETONE ONCE, Promoter: CROTON OIL, 8001-28-3
  tumour outcome (control, treated, inhibition, significance): 17/19 (89%), 17/18 (94%), -6%, not calculated
Carcinogen: HYDRAZINE SULFATE, 10034-93-2, Dose [Inhibitor]: 1.1 MG/D IN DIET STARTING 1 WK PRIOR TO ADMINISTRATION OF CARCINOGEN UNTIL END OF EXPERIMENT (STUDY DURATION: APPROXIMAT, Route [Inhibitor]: ORAL, Species: MOUSE, Strain/Sex: SWISS/MALE, FEMALE, Target Tissue: Type of Lesion: LUNG: TUMORS, Dose [Carcinogen]: 1.1 MG/D 5 D/WK UNTIL 12 MO OF AGE, Promoter: NONE USED
  tumour outcome (control, treated, inhibition, significance): 22/29 (76%), 26/33 (79%), -4%, not significant
Carcinogen: ISONIAZID, 54-85-3, Dose [Inhibitor]: 1.1 MG/MOUSE/D SIMULTANEOUSLY WITH CARCINOGEN 6 D/WK (STUDY DURATION: 24 MO), Route [Inhibitor]: INTRAGASTRIC, Species: MOUSE, Strain/Sex: SWISS/MALE, Target Tissue: Type of Lesion: LUNG: TUMOR, Dose [Carcinogen]: 1.1 MG/MOUSE/D SIMULTANEOUSLY WITH AGENT, Promoter: NONE USED
  tumour outcome (control, treated, inhibition, significance): 15/29 (52%), 2/12 (17%), 67%, p<0.1

## CC(C(=O)O)c1cccc(C(=O)c2ccccc2)c1 (centres undefined)
Carcinogen: AZOXYMETHANE, 25843-45-2, Dose [Inhibitor]: 0, 100 PPM IN DIET BEGINNING 1 WK PRIOR TO CARCINOGEN TREATMENT FOR DURATION OF STUDY (STUDY DURATION: 54 WK), Route [Inhibitor]: ORAL, Species: RAT, Strain/Sex: F344/MALE, Target Tissue: Type of Lesion: COLON: ADENOCARCINOMA, Dose [Carcinogen]: 15 MG/KG/BW 1/WK FOR 2 WK, Promoter: NONE USED
  tumour outcome (control, treated, inhibition, significance): 58%, 56%, 3%, not calculated
Carcinogen: AZOXYMETHANE, 25843-45-2, Dose [Inhibitor]: 0, 100 PPM IN DIET BEGINNING 1 WK TO CARCINOGEN TREATMENT FOR DURATION OF STUDY (STUDY DURATION: 54 WK), Route [Inhibitor]: ORAL, Species: RAT, Strain/Sex: F344/MALE, Target Tissue: Type of Lesion: COLON: ADENOMA, Dose [Carcinogen]: 15 MG/KG/BW 1/WK FOR 2 WK, Promoter: NONE USED
  tumour outcome (control, treated, inhibition, significance): 6%, 3%, 50%, not calculated
Carcinogen: AZOXYMETHANE, 25843-45-2, Dose [Inhibitor]: 0, 200 PPM IN DIET BEGINNING 1 WK PRIOR TO CARCINOGEN TREATMENT FOR DURATION OF STUDY (STUDY DURATION: 54 WK), Route [Inhibitor]: ORAL, Species: RAT, Strain/Sex: F344/MALE, Target Tissue: Type of Lesion: COLON: ADENOCARCINOMA, Dose [Carcinogen]: 15 MG/KG/BW 1/WK FOR 2 WK, Promoter: NONE USED
  tumour outcome (control, treated, inhibition, significance): 58%, 28%, 52%, p<0.01
Carcinogen: AZOXYMETHANE, 25843-45-2, Dose [Inhibitor]: 0, 200 PPM IN DIET BEGINNING 1 WK PRIOR TO CARCINOGEN TREATMENT FOR DURATION OF STUDY (STUDY DURATION: 54 WK), Route [Inhibitor]: ORAL, Species: RAT, Strain/Sex: F344/MALE, Target Tissue: Type of Lesion: COLON: ADENOMA, Dose [Carcinogen]: 15 MG/KG/BW 1/WK FOR 2 WK, Promoter: NONE USED
  tumour outcome (control, treated, inhibition, significance): 6%, 6%, 0%, not significant
Carcinogen: N-BUTYL-N-(4-HYDROXYBUTYL)NITROSAMINE, 3817-11-6, Dose [Inhibitor]: 0, 40 MG/KG DIET FOR 24 WK BEGINNING 1 WK PRIOR TO CARCINOGEN TREATMENT (STUDY DURATION: 24 WK), Route [Inhibitor]: ORAL, Species: MOUSE, Strain/Sex: BDF/MALE, Target Tissue: Type of Lesion: URINARY BLADDER: TRANSITIONAL CELL CARCINOMA, Dose [Carcinogen]: 7.5 MG 1/WK FOR 8 WK, Promoter: NONE USED
  tumour outcome (control, treated, inhibition, significance): 22/75 (29%), 5/73 (7%), 76%, p<0.01
Carcinogen: N-BUTYL-N-(4-HYDROXYBUTYL)NITROSAMINE, 3817-11-6, Dose [Inhibitor]: 0, 80 MG/KG DIET FOR 24 WK BEGINNING 1 WK PRIOR TO CARCINOGEN TREATMENT (STUDY DURATION: 24 WK), Route [Inhibitor]: ORAL, Species: MOUSE, Strain/Sex: BDF/MALE, Target Tissue: Type of Lesion: URINARY BLADDER: TRANSITIONAL CELL CARCINOMA, Dose [Carcinogen]: 7.5 MG 1/WK FOR 8 WK, Promoter: NONE USED
  tumour outcome (control, treated, inhibition, significance): 22/75 (29%), 4/72 (6%), 79%, p<0.01
